Legend:
C57BKS db/db mice = test: 5-week chronic study in db/db mice; type: in vivo, mouse
From the text: db/db (Jackson Laboratory, BarHarbor, ME, USA) mice were bred at the Shanghai Institute of Materia Medica (Chinese Academy of Sciences, Shanghai, People's Republic of China).The animals were maintained under a 12 hr light-dark cycle with free access to water and food. Animal experiments were approved by the Animal Care and Use Committee, Shanghai Institute of Materia Medica. At 8 weeks of age, male db/db mice were randomly assigned to the various treatment groups by body weight and glucose levels (n = 6-8). The treatment groups for the 5-week chronic study were as follows: vehicle (0.5% methylcellulose), ZLN024 (15 mg/kg) and metformin (250 mg/kg). The treatments were orally administered once daily. The body weights and food intake were measured daily. After 5 weeks of treatment, the mice were killed after a final dose, and the tissues were collected for further analysis. This assay was described previously. For details on primer sequences, see Legend for Table S1. These assays were described previously, [25].

L6 myotubes [1] = test: Fatty acid (palmitate) oxidation in L6 myotubes; type: cell-based; details: 4 hr treatment
Description: The assay was initiated by adding [9,10-^3H(N)]-palmitic acid (PerkinElmer, Waltham, MA, USA) to a final concentration of 250 µmol/l and 5.55×10^4 Bq per well in DMEM. After incubation with the compound for 4 hr in differentiated L6 myotubes, sample from each well was added to charcoal slurry for centrifugation and then the radioactivity was measured.

AMPK α1β1γ1 = AMPK α1β1γ1 (Homo sapiens, UniProt P54619+Q13131+Q9Y478); test: PP2Cα-catalyzed dephosphorylation of AMPK Thr-172; type: biochemical; details: 5 µmol/l ZLN024
Description: (§1) The dephosphorylation of AMPK was performed as described previously, [24].

AMPK α2β1γ1 = AMPK α2β1γ1 (Homo sapiens, UniProt P54619+P54646+Q9Y478); test: PP2Cα-catalyzed dephosphorylation of AMPK Thr-172; type: biochemical; details: 5 µmol/l ZLN024
Description: as §1

[2] = target: T1, recombinant human AMPK α2β1γ1 (Homo sapiens, UniProt P54619+P54646); test: Scintillation proximity assay (SPA), AMPK activation; type: biochemical
T1 construct: made in house
Description: (§2) Before the SPA assay, 200 nmol/l recombinant AMPK protein (α1β1γ1, α2β1γ1, α1β2γ1, α2β2γ1, α1(1–394), α1(1–335), α1(1–312)) was constructed, expressed, purified and fully phosphorylated as described previously. The SPA reactions were performed in 96-well plates in a final volume of 50 µl containing 20 mmol/l Tris-HCl, pH 7.5, 5 mmol/l MgCl2, 1 mmol/l DTT, 2 µmol/l biotin-SAMS, 2 µmol/l ATP and 7.4×10^3 Bq/well [γ-^33P]ATP. The reactions were initiated by the addition of 50 nmol/l recombinant AMPK protein to the reaction solutions, followed by incubation at 30°C for 2 hr. The reactions were then terminated by the addition of 40 µl of stop solution containing 80 µg streptavidin-coated SPA beads per well, 50 mmol/l EDTA and 0.1% Triton X-100 in PBS, pH 7.5, followed by incubation for 1 hr. Finally, 160 µl of suspension solution containing 2.4 mol/l CsCl, 50 mmol/l EDTA and 0.1% Triton X-100 in PBS, pH 7.5, was added to the reaction solution to suspend the SPA beads completely. The SPA signals were measured in a Wallac Microbeta plate counter (PerkinElmer, Waltham, MA, USA) 30 min later.

[3] = target: T2, recombinant human AMPK α1β2γ1 (Homo sapiens, UniProt Q13131); test: as above; type: biochemical
T2 construct: made in house
Description: as §2

[4] = target: T3, recombinant human AMPK α2β2γ1 (Homo sapiens, UniProt O43741+P54619+P54646); test: as above; type: biochemical
T3 construct: made in house
Description: as §2

[5] = target: T4, recombinant human AMPK α2β2γ1 (Homo sapiens, UniProt P54646); test: as above; type: biochemical
T4 construct: made in house
Description: as §2

[6] = target: T5, recombinant human AMPK α1β2γ1 (Homo sapiens, UniProt O43741+P54619+Q13131); test: as above; type: biochemical
T5 construct: made in house
Description: as §2

L6 myotubes [7] = test: Adenine nucleotide measurement (ADP/ATP ratio) in L6 myotubes; type: cell-based; details: various concentrations, 3 hr, vs DMSO
From the text: (§3) These assays were described previously, [25].

L6 myotubes [8] = test: AMPK and ACC phosphorylation (Western blot) in L6 myotubes; type: cell-based
From the text: as §3

[9] = ZLN024 15 mg/kg/day by gavage, 5 weeks

T1 sequence (P54646 whole entry): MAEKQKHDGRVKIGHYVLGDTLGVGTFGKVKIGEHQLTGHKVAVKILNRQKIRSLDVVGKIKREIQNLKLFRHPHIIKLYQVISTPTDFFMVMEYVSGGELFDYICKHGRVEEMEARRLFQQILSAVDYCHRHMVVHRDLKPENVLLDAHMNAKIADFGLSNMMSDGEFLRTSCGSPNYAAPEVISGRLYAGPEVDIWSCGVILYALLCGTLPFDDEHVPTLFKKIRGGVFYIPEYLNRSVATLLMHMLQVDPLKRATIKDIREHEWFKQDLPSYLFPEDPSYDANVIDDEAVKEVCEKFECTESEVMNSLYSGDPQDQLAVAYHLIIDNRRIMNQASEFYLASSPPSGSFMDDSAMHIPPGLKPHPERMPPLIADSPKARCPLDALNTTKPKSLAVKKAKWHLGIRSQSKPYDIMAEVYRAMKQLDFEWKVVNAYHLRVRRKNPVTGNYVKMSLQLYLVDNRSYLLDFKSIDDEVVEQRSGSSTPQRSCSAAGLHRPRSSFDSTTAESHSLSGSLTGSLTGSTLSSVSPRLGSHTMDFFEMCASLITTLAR
T1 sequence (Q9Y478 whole entry partner): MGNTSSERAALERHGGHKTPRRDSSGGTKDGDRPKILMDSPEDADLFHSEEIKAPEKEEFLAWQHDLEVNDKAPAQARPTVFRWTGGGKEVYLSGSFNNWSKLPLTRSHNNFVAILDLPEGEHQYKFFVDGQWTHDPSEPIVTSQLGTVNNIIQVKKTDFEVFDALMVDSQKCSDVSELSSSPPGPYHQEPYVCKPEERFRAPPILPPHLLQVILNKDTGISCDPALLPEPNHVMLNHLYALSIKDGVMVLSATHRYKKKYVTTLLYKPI
T1 sequence (P54619 whole entry): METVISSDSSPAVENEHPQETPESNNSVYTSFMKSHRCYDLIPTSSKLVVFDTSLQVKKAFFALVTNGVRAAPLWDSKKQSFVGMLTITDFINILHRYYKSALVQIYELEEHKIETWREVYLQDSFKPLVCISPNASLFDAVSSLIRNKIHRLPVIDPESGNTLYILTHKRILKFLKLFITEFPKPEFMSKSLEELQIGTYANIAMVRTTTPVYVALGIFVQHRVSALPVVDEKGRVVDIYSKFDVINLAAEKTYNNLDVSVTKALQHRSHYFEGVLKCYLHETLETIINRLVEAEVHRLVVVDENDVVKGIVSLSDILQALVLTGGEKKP
T5 sequence (Q13131 10-559 limits assumed): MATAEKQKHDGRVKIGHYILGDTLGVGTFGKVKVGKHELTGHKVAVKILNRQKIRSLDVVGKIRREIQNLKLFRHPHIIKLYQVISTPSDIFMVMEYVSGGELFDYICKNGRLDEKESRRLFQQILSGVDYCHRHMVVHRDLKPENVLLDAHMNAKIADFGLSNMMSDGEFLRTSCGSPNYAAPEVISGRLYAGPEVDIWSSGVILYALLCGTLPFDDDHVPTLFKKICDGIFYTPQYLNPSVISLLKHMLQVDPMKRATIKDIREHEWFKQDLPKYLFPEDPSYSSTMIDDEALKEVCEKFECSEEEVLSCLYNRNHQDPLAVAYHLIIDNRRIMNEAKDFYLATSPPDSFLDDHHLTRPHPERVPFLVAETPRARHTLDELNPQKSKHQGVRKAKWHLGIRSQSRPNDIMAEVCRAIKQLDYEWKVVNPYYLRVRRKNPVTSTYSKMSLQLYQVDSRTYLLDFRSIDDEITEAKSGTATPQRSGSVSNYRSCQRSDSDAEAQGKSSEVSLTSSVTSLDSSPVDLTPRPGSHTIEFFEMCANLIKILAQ
T5 sequence (O43741 whole entry partner): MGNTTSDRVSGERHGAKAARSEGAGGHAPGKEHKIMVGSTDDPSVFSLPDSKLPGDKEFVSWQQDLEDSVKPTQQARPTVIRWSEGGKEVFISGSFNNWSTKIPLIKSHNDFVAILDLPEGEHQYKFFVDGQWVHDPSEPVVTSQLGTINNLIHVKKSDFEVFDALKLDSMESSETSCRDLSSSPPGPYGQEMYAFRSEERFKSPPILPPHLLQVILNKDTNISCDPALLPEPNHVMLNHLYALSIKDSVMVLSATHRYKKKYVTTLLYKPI
T5 sequence (P54619 whole entry partner): as the sequence (P54619 whole entry) above
T2 sequence (Q13131 10-559 limits assumed): as the sequence (Q13131 10-559 limits assumed) above
T2 sequence (O43741 whole entry partner): as the sequence (O43741 whole entry partner) above
T2 sequence (P54619 whole entry partner): as the sequence (P54619 whole entry) above
Chain of AMPK α1β1γ1 (Q13131 10-559 limits assumed): as the sequence (Q13131 10-559 limits assumed) above
Chain of AMPK α1β1γ1 (Q9Y478 whole entry): as the sequence (Q9Y478 whole entry partner) above
Chain of AMPK α1β1γ1 (P54619 whole entry): as the sequence (P54619 whole entry) above
T4 sequence (P54646 whole entry): as the sequence (P54646 whole entry) above
T4 sequence (O43741 whole entry partner): as the sequence (O43741 whole entry partner) above
T4 sequence (P54619 whole entry partner): as the sequence (P54619 whole entry) above
Chain of AMPK α2β1γ1 (P54646 whole entry): as the sequence (P54646 whole entry) above
Chain of AMPK α2β1γ1 (Q9Y478 whole entry): as the sequence (Q9Y478 whole entry partner) above
Chain of AMPK α2β1γ1 (P54619 whole entry): as the sequence (P54619 whole entry) above
T3 sequence (P54646 whole entry): as the sequence (P54646 whole entry) above
T3 sequence (O43741 whole entry partner): as the sequence (O43741 whole entry partner) above
T3 sequence (P54619 whole entry partner): as the sequence (P54619 whole entry) above

Cc1ccc(OCCSc2ncccn2)c(Br)c1 [ZLN024]
ACC phosphorylation in abdominal muscle and liver tissue (C57BKS db/db mice; 15 mg/kg/day, 5 weeks): increased | AMPK phosphorylation in abdominal muscle and liver tissue (C57BKS db/db mice; 15 mg/kg/day, 5 weeks): not affected | body weight compared with the vehicle group (C57BKS db/db mice; [9]): no significant alteration | food intake compared with the vehicle group (C57BKS db/db mice; [9]): no significant alteration | reduction of fasting blood glucose (C57BKS db/db mice; ZLN024 15 mg/kg/day, 4 weeks, fasted 6 hr, not significant with ANOVA): 15% | abdominal muscle expression of fatty acid oxidation genes CPT-1, MCAD and LCAD (C57BKS db/db mice; ZLN024 15 mg/kg/day, 5 weeks): significantly upregulated | abdominal muscle expression of mitochondrial biogenesis genes PGC-1α, cyto-c and ATPase (C57BKS db/db mice; ZLN024 15 mg/kg/day, 5 weeks): upregulated | decrease of liver total cholesterol levels (C57BKS db/db mice; ZLN024 15 mg/kg/day, 5 weeks): 20% | liver expression of PEPCK (C57BKS db/db mice; ZLN024 15 mg/kg/day, 5 weeks): remained unchanged | liver expression of anabolic genes FAS, mtGPAT and G6Pase (C57BKS db/db mice; ZLN024 15 mg/kg/day, 5 weeks): significantly reduced | liver expression of catabolic genes CPT1, LCAD, PDK4 and AOX (C57BKS db/db mice; ZLN024 15 mg/kg/day, 5 weeks): mildly increased | liver/body weight reduction vs vehicle (C57BKS db/db mice; ZLN024 15 mg/kg/day, 5 weeks): 9% | reduction of liver triacylglycerol levels (C57BKS db/db mice; ZLN024 15 mg/kg/day, 5 weeks): approximately 45% | liver/body weight (wt/wt) (C57BKS db/db mice; ZLN024 15 mg/kg/day, 5 weeks (vehicle 5.3%)): 4.8% | reduction in glucose tolerance AUC (C57BKS db/db mice; ZLN024 15 mg/kg/day, after 4 weeks, i.p. glucose load 1.5 g/kg): approximately 15% | stimulation of palmitate oxidation (L6 myotubes [1]): 40% | protection of AMPK α1β1γ1 against dephosphorylation by PP2Cα (AMPK α1β1γ1): provided protection against dephosphorylation | protection of AMPK α2β1γ1 against dephosphorylation by PP2Cα (AMPK α2β1γ1): provided protection against dephosphorylation | EC50 ([2]; SPA): 950 nM | activation of α2β1γ1 activity ([2]; SPA): 1.7 fold | additional activation of AMPK α2β1γ1 ([2]; ZLN024 increased to 10 µmol/l in the presence of saturating AMP (12.5 µmol/l)): 1.3 fold | activation of α1β2γ1 activity [3]: 1.7 fold | EC50 [4]: 130 nM | activation of α2β2γ1 activity [5]: 1.6 fold | EC50 [6]: 1100 nM | ADP/ATP ratio (L6 myotubes [7]): not affected | phosphorylation of AMPK and ACC (L6 myotubes [8]; 3 hr incubation, concentration-dependent): stimulated | time to maximal effect on AMPK and ACC phosphorylation (L6 myotubes [8]; ZLN024 20 µmol/l): ≤ 30 min | time to start of increase of AMPK and ACC phosphorylation (L6 myotubes [8]; ZLN024 20 µmol/l): ≤ 15 min

From publication PMC3748009, “Novel Small-Molecule AMP-Activated Protein Kinase Allosteric Activator with Beneficial Effects in db/db Mice” (PLoS ONE, 2013)
